Our source for the IC50 values is the COVID Moonshot data (paper PMC7615835).

Several values for one entry are separate records, joined by “and”; a condition that tells them apart may be missing. Equal values may be shown once.

This assay concerns the target SARS-CoV-2 Main Protease (SARS-CoV-2) (UniProt P0DTD1).

Broadly, the IC50 is the concentration that gives 50% inhibition. On to `OC(Cc1cccc(Cl)c1)Cn1cncn1` (configuration not stated), for which the IC50 is 65.3 µM.

For `O=C(Nc1cncc2ccccc12)C(NC[C@@H]1CC[C@H](C(=O)N2CCCC2)O1)c1cccc(Cl)c1` (stereo in doubt), the IC50 was found to be 2.77 µM.

For `O=C(NCc1ccc(Cl)cc1CN1CCN(C(=O)CCl)CC1)[C@@H]1CCCOC1` (stereo in doubt), the IC50 was found to be 12.1 µM.

For the compound `Cc1nnn(NC(=O)Cc2cccc(Cl)c2)c1C`, the IC50 is 14.2 µM.

`O=C(Cc1cc(Cl)cc(Nc2ccc(Br)cc2O)c1)Nc1cncc2ccccc12` came in with an IC50 of 3.89 µM.

`C[C@H](Nc1cc(Cl)cc(CC(=O)Nc2cncc3ccccc23)c1)c1ccc(Br)cc1` (stereo in doubt): the IC50 was found to be 3.77 µM.

Compound `COC(=O)c1c(C)n(S(C)(=O)=O)c2ccc(N(C(=O)c3ccco3)S(C)(=O)=O)cc12` had a half-maximal inhibitory concentration (IC50) of 0.935 µM.

In turn, `CC1(NC(=O)CN2Cc3ccc(Cl)cc3C3(CCN(c4cncc5ccccc45)C3=O)C2)CC1` (configuration not stated) showed an IC50 of 0.271 µM.

On to `Cc1csc2ncc(C(=O)Nc3cccc4ncccc34)c(=O)n12`, for which the IC50 is over 99.5 µM.

On to `CC(C)(C)c1ccc(N(C(=O)c2ccc(O)c(=O)o2)C(C(=O)NCCc2cccc(F)c2)c2cccnc2)cc1` (configuration not stated), for which the IC50 was determined as 76.5 µM.

Compound `CC(C)(C)c1ccc(N(C(=O)c2c[nH]c(=O)cn2)C(C(=O)NCCc2cccc(F)c2)c2cccnc2)cc1` (configuration not stated) gave an IC50 of 77.1 µM.

For `Cc1cc(O)cc(C)c1C[C@H](NC(=O)[C@H](N)CCCNC(=N)N)C(=O)N[C@@H](CCCCN)C(=O)N[C@@H](Cc1ccccc1)C(N)=O` (stereo in doubt), the IC50 was over 99 µM.

Compound `CCOc1ccccc1CNc1cc(Cl)cc(CC(=O)Nc2cncc3ccccc23)c1` registered an IC50 of 2.07 µM.

`Cc1ccn2cnnc2c1NC(=O)C1CCOc2ccc(Cl)cc21` (configuration not stated) had an IC50 of over 99.5 µM.

In turn, `Cn1cncc1C(=O)N(c1ccc(C(C)(C)C)cc1)C(C(=O)NCCc1cccc(F)c1)c1cccnc1` (configuration not stated) registered an IC50 of over 99.5 µM.

Take `O=C(Cc1cc(Cl)cc(Nc2cc(Cl)c(O)c(Cl)c2)c1)Nc1cncc2ccccc12`: the IC50 turned out to be 6.9 µM.

In turn, `O=C(NCCc1cccc(F)c1)C(c1cccnc1)N(C(=O)c1cocn1)c1ccccc1` (configuration not stated) registered an IC50 of 89.2 µM.

`CN(C(=O)c1ccco1)C(C(=O)NCCc1cccc(F)c1)c1cccnc1` (configuration not stated): the IC50 is over 99.5 µM.

The compound `O=C(NCCc1cccc(F)c1)C(c1cccnc1)N(C(=O)c1cocn1)C1COc2ccccc2C1` (configuration not stated) displayed a half-maximal inhibitory concentration (IC50) of over 99.5 µM.

In the case of `O=C(NCCc1cccc(F)c1)C(c1cccnc1)N(C(=O)c1cnc[nH]1)C1CCC2OCCC2C1` (configuration not stated), the IC50 was over 99 µM.

Compound `CC(C)CS(=O)(=O)N1Cc2ccc(Cl)cc2C(C(=O)Nc2cncc3ccccc23)C1` (configuration not stated) displayed an IC50 of 0.107 µM.

Turning to `O=C(Cc1cc(Cl)cc(Nc2cccc(I)c2)c1)Nc1cncc2ccccc12`, the IC50 was 2.22 µM.

`C=CC(=O)N(c1ccc(C(C)(C)C)cc1)C(C(=O)Nc1ccc2c(c1)OCO2)c1cccnc1` (configuration not stated) showed an IC50 of 36.1 µM.

In turn, `O=C(Cc1cc(Cl)cc(Nc2ccc(OCc3ccccc3)cc2)c1)Nc1cncc2ccccc12` had an IC50 of 8.23 µM.

For `O=C(Cc1cc(Cl)cc(Nc2cc(F)c(Br)c(F)c2)c1)Nc1cncc2ccccc12`, the half-maximal inhibitory concentration (IC50) was 2.05 µM.

Turning to `CS(=O)(=O)c1ccc2c(NC(=O)C3CN(CC(=O)NCC(F)(F)F)C(=O)c4ccc(Cl)cc43)cncc2c1` (configuration not stated), the IC50 was found to be 0.287 µM.

`O=C(Cc1cccc(C(F)(F)F)c1)Nc1cnccc1C(=O)O` displayed an IC50 of over 99.5 µM.

The compound `C=CC(=O)N(c1ccc(C(F)(F)F)cc1)C(C(=O)Nc1c(C)cccc1CC)c1cccnc1` (configuration not stated) showed an IC50 of 97.8 µM.

The compound `O=C(Cc1cc(Cl)cc(N[C@H](c2ccccc2)[C@@H](O)c2ccccc2)c1)Nc1cncc2ccccc12` (stereo in doubt) gave an IC50 of 2.24 µM.

`Cn1cccc(C(C(=O)NCCc2cccc(F)c2)N(C(=O)c2cocn2)c2ccc(C(C)(C)C)cc2)c1=O` (configuration not stated) registered an IC50 of over 99.5 µM.

Compound `O=C(Cc1cc(Cl)cc(NCc2ccc(OC(F)(F)F)cc2)c1)Nc1cncc2ccccc12` had an IC50 of 5.52 µM.

For `O=C(NCCc1cccc(F)c1)C(c1cccnc1)N(C(=O)c1cnc[nH]1)c1cnc(C2CCC2)nc1` (configuration not stated), the IC50 was over 99 µM.

`O=C(NCCc1ccccc1)[C@H]1CN(C(=O)CCl)CCN1S(=O)(=O)c1ccsc1` (stereo in doubt): the IC50 is 2.43 µM.

In turn, `O=C(Cc1cc(Cl)cc(NCc2ccc(I)cc2)c1)Nc1cncc2ccccc12` showed an IC50 of 4.37 µM.

Turning to `O=C(CCl)N1CCN(Cc2cc(Cl)cc(Cl)c2)CC1`, the IC50 came to 1.89 µM.

`O=C(Cc1cc(Cl)cc(Nc2cc(Cl)ccc2OC(F)(F)F)c1)Nc1cncc2ccccc12` returned an IC50 of 2.12 µM.

With `Cc1ccncc1NC(=O)Cc1cc(Cl)cc(OCc2nnc(C3CCCCC3)o2)c1`, the IC50 turned out to be 20.6 µM.

`O=C(Nc1cncc2ccccc12)C1CN(CC(F)(F)F)Cc2ccc(Cl)cc21` (configuration not stated): the IC50 amounted to 3.41 µM.

In turn, `O=C(Nc1cncc2ccccc12)C(NCC1CC1)c1ccc(Cl)c(Cl)c1` (configuration not stated) came in with an IC50 of 1.75 µM.

For the compound `N#Cc1cccc(CN2CCN(C(=O)CCl)CC2)c1`, the IC50 worked out at 19.7 µM.

`O=C(Cc1cc(Cl)cc(NC[C@H](O)c2ccc(O)cc2)c1)Nc1cncc2ccccc12` (stereo in doubt) showed an IC50 of 1.64 µM.

As for `O=C(CCl)N1CCCN(S(=O)(=O)c2c(F)cccc2F)CC1`, the IC50 came to 20.2 µM.

`CC1(CS(=O)(=O)N2Cc3ccc(Cl)cc3C3(CCN(c4cncc5ccccc45)C3=O)C2)CC1` (configuration not stated) gave an IC50 of 0.265 µM.

`O=C(NCCc1cccc(F)c1)C(c1cccnc1)N(Cc1ccccc1)C(=O)c1cnc[nH]1` (configuration not stated): the IC50 is over 99 µM.

In the case of `N#CC1CN(S(=O)(=O)NCc2ccc(Cl)cc2CC(=O)Nc2cncc3ccccc23)C1`, the IC50 was found to be 0.231 µM.

Consider `CN(C)c1ccc(C(Cc2ccsc2)C(=O)Nn2cnc3ccccc32)cc1` (configuration not stated), for which the IC50 is over 99.5 µM.

Compound `CCNc1ncc(C#N)cc1CN1CCN(C(=O)CCl)CC1` displayed an IC50 of 3.22 µM.

Regarding `O=C(Cc1cccc(Cl)c1)Nc1nnn[nH]1`, the IC50 worked out at 45.3 µM.

In turn, `O=C(Cc1cc(Cl)cc(NCc2ccc(-c3ccccc3)cc2)c1)Nc1cncc2ccccc12` had an IC50 of 1.53 µM.

`O=C(Cc1cccc(Cl)c1)Nc1cncc2c1CCCC2` yielded an IC50 of over 99.5 µM.

The compound `CNC(=O)CN1Cc2ccc(Cl)cc2C(C(=O)Nc2cncc3ccc(C(C)(C)O)cc23)C1` (configuration not stated) came in with a half-maximal inhibitory concentration (IC50) of 0.564 µM.

With `O=C(NCCOc1ccccc1)c1cc(=O)[nH]c2ccccc12`, the IC50 is over 99.5 µM.

Compound `Cc1ccncc1NC(=O)Cc1cc(Cl)cc(NS(C)(=O)=O)c1` had an IC50 of 21.8 µM.

`CN(C)c1ccc(N(Cc2ccsc2)C(=O)Cn2nnc3ccccc32)cc1` gave an IC50 of 1.79 µM.

For the compound `CN(CC(=O)Nc1ccccc1Br)C(=O)CCl`, the IC50 stood at 5.9 µM.

In turn, `O=C(Cc1cccc(Cl)c1)NC1C(=O)NCc2ccccc21` (configuration not stated) returned an IC50 of over 99.5 µM.

`Cc1cc(C(=O)N2CCC(C3CCNC3)CC2)cc(S(=O)(=O)N(C)C)c1C` (configuration not stated) returned an IC50 of over 99.5 µM.

For the compound `Cc1nc(Nc2cc(Cl)cc(CC(=O)Nc3cncc4ccccc34)c2)ccc1Br`, the half-inhibitory concentration (IC50) came out at 2.07 µM.

The compound `Cc1ccncc1NC(=O)Cc1ccccc1N` showed an IC50 of over 99.5 µM.

As for `CN(C)C(=O)c1ccc2c(NC(=O)Cc3cccc(Cl)c3)cncc2c1`, the IC50 was 2.44 µM.

`O=C(Cc1cc(Cl)cc(Nc2cncc(Br)c2)c1)Nc1cncc2ccccc12`: the IC50 was found to be 2.16 µM.

For `Cc1ccc(S(=O)(=O)N2CCN(C(=O)CCl)C[C@H]2C(=O)NC2CCCCC2)cc1` (stereo in doubt), the IC50 came to 4.48 µM.

On to `CC(NC(=O)c1cc2n(n1)CCO2)(C(=O)Nc1cncc2ccccc12)c1ccc(Cl)c(Cl)c1` (configuration not stated), for which the IC50 was 6.89 µM and 10.5 µM.

For the compound `CC1CN(C)CCN1C(=O)CC1(C(=O)Nc2cncc3ccccc23)CCOc2ccc(Cl)cc21` (configuration not stated), the IC50 was 7.87 µM and 4.85 µM.

Regarding `O=S(=O)(c1cc2c(cc1OCc1ccccc1)OCO2)N1CCOCC1`, the IC50 was over 99.5 µM.

In turn, `COCCN(C)S(=O)(=O)N1Cc2ccc(Cl)cc2C2(CCN(c3cncc4ccccc34)C2=O)C1` (configuration not stated) gave an IC50 of 0.993 µM.

Consider `O=C(NCCc1cccc(F)c1)C(c1cccnc1)N(C(=O)c1cocn1)C1CCc2ccccc21` (configuration not stated), for which the IC50 is over 99.5 µM.

In the case of `O=C(CCl)N1CCN(Cc2cc(Cl)ccc2CNC(=O)N2CCOCC2)CC1`, the IC50 was found to be 3.8 µM.

In turn, `O=C(Cc1cc(Cl)cc(Br)c1)Nc1cncc2ccccc12` displayed an IC50 of over 9.95 µM.

`NCc1cn(CC(=O)N(CC(=O)N2CCNCC2)c2ccc(-c3ccccc3)cc2)nn1`: the IC50 was over 99.5 µM.

`O=C(CN(C(=O)Cn1nnc2ccccc21)c1ccc(-c2ccccc2)cc1)N1CCNCC1` registered an IC50 of over 99.5 µM.

In the case of `CNC(=O)CN1C[C@@]2(CC(=O)N(c3cncc4ccccc34)C2=O)c2cc(Cl)ccc2C1=O` (stereo in doubt), the IC50 stood at 0.123 µM.

For `O=C(Cn1nnc2ccccc21)N(Cc1ccsc1)c1ccc(N2CCOCC2)cc1`, the IC50 was found to be 11.6 µM.

In turn, `O=C(c1ccc2nc(C(F)F)[nH]c2c1)N1CCC(C2CCNC2)CC1` (configuration not stated) displayed an IC50 of over 99.5 µM.

For the compound `C[C@@H](C(=O)Nc1cncnc1)c1ccccc1` (stereo in doubt), the IC50 was over 99.5 µM.

For the compound `O=C(Cc1cc(Cl)cc(Nc2ccc([N+](=O)[O-])cc2Cl)c1)Nc1cncc2ccccc12`, the IC50 was 2.18 µM.

`Cc1ccc(-c2ccc(C(=O)N3CC[C@H](N)C3)c(F)c2)cc1` (stereo in doubt) yielded an IC50 of over 99.5 µM.

Compound `CC(C)(C)OC(=O)N1CCC(NC(=O)C(c2cccnc2)N(C(=O)c2cocn2)c2ccc(C(C)(C)C)cc2)C1` (configuration not stated) came in with an IC50 of 3.65 µM.

As to `O=C(Cc1cc(Cl)cc(Nc2c(Cl)c(F)nc(F)c2Cl)c1)Nc1cncc2ccccc12`, the IC50 is 2.16 µM.

For the compound `O=C(NCc1ccc2[nH]c(=O)[nH]c2c1)Nc1ccc(F)c(F)c1`, the IC50 is over 99.5 µM.

The compound `O=C(Nc1ccccc1)[C@@H](c1ccccc1)N1Cc2ccccc2C1=O` (stereo in doubt) came in with an IC50 of over 99.5 µM.

On to `CC(=O)N1CCN(CC(=O)Nc2cncc3ccccc23)CC1`, for which the IC50 was > 99.5 µM and 51.7 µM.

Consider `O=C(Nc1cncc2ccccc12)C1COCc2ccc(Cl)cc21` (configuration not stated), for which the IC50 was 8.08 µM.

`CNC(=O)CN1C[C@@H](C(=O)Nc2cncc3cc(Cl)ccc23)c2cc(Cl)ccc2C1=O` (stereo in doubt) gave an IC50 of 0.939 µM.

`Nc1cncc2c1CCCN2C(=O)Cc1cccc(Cl)c1`: the IC50 is 25.5 µM and 41.4 µM.

`CN(Cc1cccc(Cl)c1)C(=O)Cn1nnc2ccccc21` registered an IC50 of over 99.5 µM.

As to `COc1cc(Nc2cc(Cl)cc(CC(=O)Nc3cncc4ccccc34)c2)ccc1Br`, the IC50 came to 1.89 µM.
